Our source for the IC50 values is patent US20030065039A1, “Biologically active 1,3-bis-aromatic-prop-2-en-1-ones, 1,3-bis-aromatic-propan-1-ones, and 1,3-bis-aromatic-prop-2-yn-1-ones” (Statens Serum Institute, priority 1997, published 2003).

Like-named read-outs stand apart in the source and are kept apart here.

What all share (format): cell-based
For experiment [1], the system named is Leishmania promastigotes. Put plainly: Leishmania promastigotes Assay. Particulars: promastigotes, 3H-thymidine uptake, read-out: Leishmania IC50 ± SD. How it is done:
A WHO reference vaccine strain of L. major originally isolated from a patient in Iran and a Kenyan strain of L. donovani (MHOM(/KE/85/NLB 274) were cultured in medium 199 containing 0.02 mg/ml gentamycin, 25 mM Hepes, 4 mM L-glutamine, and 20% heat inactivated fetal calf serum (FCS). Incubation was carried out at 26° C. Promastigotes were harvested on day 3 and 6 of the culture and used for the parasite growth inhibition.
The effect of the test compounds on promastigotes was assessed by a method similar to the one described by Pearson et al., by incubating promastigotes (3×10^6/ml) at 26° C. for 2 hrs in the presence of a given compound or the medium alone in 96 wells flat bottom microtiter plates. Following incubation, 100 μCi of 3H-thymidine was added to each well and further incubated for 18 hrs. Promastigotes were then harvested on filter paper by means of a cell harvester, extensively washed with distilled water and counted in a scintillation counter. The promastigotes were also counted microscopically and their flagellar motility was assessed.

Experiment [2] has as its system human lymphocytes. In words: Lymphocyte Proliferation Assay. Particulars: PHA provoked proliferation of human lymphocytes, read-out: Lymphocytes IC50 ± SD. How it is done:
Human blood mononuclear cells (BMNC) from heparinized blood were isolated by metrizoate sodium-Ficoll density gradient centrifugation, washed 3 times in RPMI 1640 medium supplemented with 5% FCS and with 400 IU of penicillin plus 400 μg/ml streptomycin. BMNC were resuspended in the medium and cultured in triplicate, 0.63×10^5/ml and 160 μl per vial, in round-bottom microtiter plates with 20 μl of various concentrations of the test compound. Immediately prior to incubation, optimum concentrations of the mitogen phytohaemagglutinin (PHA) and the antigen purified protein derivative of tuberculin (PPD) were added to the cultures in a volume of 20 μl. Unstimulated control cultures were always included. Cultures were incubated for 3 or 7 days. The degree of lymphocyte proliferation was estimated by ^3H-thymidine (1 μCi per well) addition 24 h before the cells were harvested on glass fiber filters by means of a harvesting machine), and ^3H-thymidine incorporation was measured in a liquid scintillation counter. For each set of triplicate values, the median was recorded. Unstimulated cultures were always included as controls.

In experiment [3] the test system is Plasmodium falciparum. Put plainly: Plasmodium falciparum Assay. Particulars: 3-H-hypoxanthine incorporation, 48 hours, read-out: Plasmodium IC50 ± SD. On the procedure: The experiments in which compounds were tested for their ability to inhibit parasite growth were performed by a modification of the method originally described by Jensen et al. (1982). 50 μl of parasitized erythrocytes (parasitemia approximately 1%) in a concentration of 5×10^8/ml and 50 μl of RPMI medium containing different concentrations of the test compound was added to each well of a 96 well flat-bottomed microtiter plate. The cultures were then incubated for 48 hours, 24 hours before termination of the culture adding 20 μl of 3-H-hypoxanthine (40 uCi/ml) was added to each well. The cultures were then harvested onto glass fiber filters using a Skatron cell harvester, and the incorporation of 3-H-hypoxanthine into the DNA of dividing parasites was determined by liquid scintillation spectrometry. Control cultures with uninfected erythrocytes and infected erythrocytes in RPMI medium without test compounds were always performed in parallel to the test cultures. In some experiments thin smears of parasite cultures were stained by Giemsa and examined under microscope (×1000). The test compounds described above, were diluted in RPMI medium immediately before use. In the experiments, chloroquine phosphate was used as a positive control as a drug known to inhibit parasite growth.

One may read the IC50 as the concentration that gives 50% inhibition. For `COc1ccc(C(=O)/C=C/c2cccc(F)c2)c(OC)c1OC` [3-F-2′,3′,4′-OCH3, 3-fluoro-2′,3′,4′-trimethoxychalcone], the results for the IC50 in experiment [1] (Leishmania), in experiment [2] (Lymphocyte) and in experiment [3] (Plasmodium falciparum) were 9.7 ± 0.9 µM, 6.4 ± 0.4 µM and 29 µM, respectively.
`COc1ccc(C(=O)/C=C/c2cccc(Oc3ccccc3)c2)c(OC)c1OC` [3-OC6H5-2′,3′,4′-OCH3, 3-phenoxy-2′,3′,4′-trimethoxychalcone]: the values for the IC50 in experiment [1] (Leishmania), in experiment [2] (Lymphocyte) and in experiment [3] (Plasmodium falciparum) were 8.7 ± 0.5 µM, 17 ± 1 µM and 8.9 µM, respectively.
Turning to `COc1ccc(/C=C/C(=O)c2cccc(Br)c2)c(OC)c1` [3′-Br-2,4-OCH3], the IC50 in experiment [1] amounted to 16 ± 1 µM; in experiment [2], 37 ± 2 µM; in experiment [3] it was 17 µM.
Regarding `C=CCOc1ccc(C(=O)/C=C/c2cc(OC)c(CCCCCC)c(OC)c2)cc1` [4-C6H13-3,5-OCH3-4′-allyloxy, 4-hexyl-3,5-dimethoxy-4′-(2-propenyloxy)chalcone], the values for the IC50 in experiment [1] (Leishmania), in experiment [2] (Lymphocyte) and in experiment [3] (Plasmodium falciparum) were 19 ± 4 µM, 15 ± 1 µM and 11 µM, respectively.
In the same order, the values of `COc1ccc(C(=O)/C=C/c2ccc(N(C)C)cc2)c(OC)c1OC` [4-N(CH3)2-2′,3′,4′-OCH3, 4-dimethylamino-2′,3′,4′-trimethoxychalcone] are 21 ± 2 µM, 35 ± 2 µM and 22 µM.
`O=C(/C=C/c1ccc(F)cc1)c1ccc(F)cc1` [4′,4-F, 4,4′-difluorochalcone]: the IC50 in experiment [1] (Leishmania) amounted to 15 ± 2 µM; in experiment [2] (Lymphocyte), 22 ± 1 µM; in experiment [3] (Plasmodium falciparum) it was 43 µM.
For `COc1ccc(/C=C/C(=O)c2ccc(OC)cc2)cc1` [4′,4-OCH3], the figures for the IC50 in experiment [1], in experiment [2] and in experiment [3] were 106 ± 9 µM, 112 ± 8 µM and 51 µM, respectively.
Consider `O=C(/C=C/c1ccc(O)cc1)c1ccc(O)cc1` [4′-4-OH], for which the results for the IC50 in experiment [1], in experiment [2] and in experiment [3] were 83 ± 5 µM, 59 ± 3 µM and 17 µM, respectively.
With `O=C(/C=C/c1ccccc1)c1ccc(F)cc1` [4′-F, 4′-fluorochalcone], the values for the IC50 in experiment [1] (Leishmania), in experiment [2] (Lymphocyte) and in experiment [3] (Plasmodium falciparum) were 15 ± 1 µM, 23 ± 2 µM and 51 µM, respectively.
As for `CCCCCCOc1ccc(C(=O)/C=C/c2ccccc2)cc1` [4′-OC6H13], the IC50 in experiment [1] is 62 ± 5 µM; in experiment [2], 99 ± 7 µM; in experiment [3], 17 µM.
Turning to `O=C(/C=C/c1ccccc1)c1ccccc1` [Chalcon], the IC50 came to 20 ± 1 µM in experiment [1] (Leishmania), 21 ± 2 µM in experiment [2] (Lymphocyte) and 44 µM in experiment [3] (Plasmodium falciparum).
For `COc1c(/C=C/C(=O)c2ccc(O)cc2)ccc(O)c1CC=C(C)C` [Licochalcone C, 2-methoxy-3-(3-methyl-2-butenyl)-4,4′-dihydroxychalcone] the same measures were 55 ± 3 µM, 53 ± 2 µM and 16 µM.
